# In ChEMBL document CHEMBL1157516, “Discovery of a novel, potent and orally active series of gamma-lactams as selective NK1 antagonists” (Bioorg Med Chem Lett, 2008):
# Assays:
# [1] = target: Substance-P receptor (Homo sapiens, UniProt P25103); assay: Displacement of [3H]Sar-Met substance P from human recombinant NK1 receptor expressed in CHO cells; assay type: cell-based
# [2] = test system: Meriones unguiculatus; assay: Inhibition of GR-73632-induced foot tapping in Mongolian gerbil assessed as decrease in duration of foot tapping at 1 mg/kg, po after 6 hrs; assay type: functional
# [3] = test system: Meriones unguiculatus; assay: Inhibition of GR-73632-induced foot tapping in Mongolian gerbil assessed as decrease in duration of foot tapping at 1 mg/kg, po after 4 hrs; assay type: functional
# [4] = test system: Meriones unguiculatus; assay: Inhibition of GR-73632-induced foot tapping in Mongolian gerbil assessed as decrease in duration of foot tapping at 1 mg/kg, po after 2 hrs; assay type: functional
# [5] = target: T1, Neuromedin-K receptor (Homo sapiens, UniProt P29371); assay: Displacement of [125I]neurokinin B from human recombinant NK3 receptor expressed in CHO cells; assay type: cell-based
# T1 sequence (P29371 whole entry): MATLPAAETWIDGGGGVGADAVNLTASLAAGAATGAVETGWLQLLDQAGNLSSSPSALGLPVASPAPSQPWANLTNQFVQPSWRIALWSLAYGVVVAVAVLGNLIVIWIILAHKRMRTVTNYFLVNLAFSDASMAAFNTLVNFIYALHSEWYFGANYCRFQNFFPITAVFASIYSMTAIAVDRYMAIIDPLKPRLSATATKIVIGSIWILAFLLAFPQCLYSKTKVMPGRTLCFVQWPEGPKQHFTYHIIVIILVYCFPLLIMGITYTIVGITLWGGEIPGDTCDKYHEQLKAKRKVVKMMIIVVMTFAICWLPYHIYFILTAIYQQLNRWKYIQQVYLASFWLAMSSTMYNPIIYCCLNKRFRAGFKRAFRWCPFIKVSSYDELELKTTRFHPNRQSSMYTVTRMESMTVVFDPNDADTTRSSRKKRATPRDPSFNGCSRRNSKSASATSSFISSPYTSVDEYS
# [6] = target: T2, Substance-K receptor (Homo sapiens) (UniProt P21452); assay: Displacement of [3H]Neurokinin A from human recombinant NK2 receptor expressed in CHO cells at 3 uM; assay type: cell-based
# T2 sequence (whole entry): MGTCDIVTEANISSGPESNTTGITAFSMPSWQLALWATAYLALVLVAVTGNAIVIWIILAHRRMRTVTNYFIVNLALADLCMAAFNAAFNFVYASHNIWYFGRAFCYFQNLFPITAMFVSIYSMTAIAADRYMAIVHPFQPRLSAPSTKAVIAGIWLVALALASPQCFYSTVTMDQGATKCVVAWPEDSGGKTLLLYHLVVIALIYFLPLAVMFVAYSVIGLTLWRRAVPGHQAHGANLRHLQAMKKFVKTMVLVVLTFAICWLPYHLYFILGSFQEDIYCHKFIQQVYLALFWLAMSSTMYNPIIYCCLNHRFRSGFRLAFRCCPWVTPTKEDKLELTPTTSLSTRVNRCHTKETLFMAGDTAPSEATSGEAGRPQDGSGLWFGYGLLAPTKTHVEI
# [7] = target: T3, Neuromedin-K receptor (Homo sapiens) (UniProt P29371); assay: Displacement of [125I]neurokinin B from human recombinant NK3 receptor expressed in CHO cells at 10 uM; assay type: cell-based
# T3 sequence (whole entry): T1 sequence (P29371 whole entry)
# Substance-P receptor, sequence (P25103 whole entry): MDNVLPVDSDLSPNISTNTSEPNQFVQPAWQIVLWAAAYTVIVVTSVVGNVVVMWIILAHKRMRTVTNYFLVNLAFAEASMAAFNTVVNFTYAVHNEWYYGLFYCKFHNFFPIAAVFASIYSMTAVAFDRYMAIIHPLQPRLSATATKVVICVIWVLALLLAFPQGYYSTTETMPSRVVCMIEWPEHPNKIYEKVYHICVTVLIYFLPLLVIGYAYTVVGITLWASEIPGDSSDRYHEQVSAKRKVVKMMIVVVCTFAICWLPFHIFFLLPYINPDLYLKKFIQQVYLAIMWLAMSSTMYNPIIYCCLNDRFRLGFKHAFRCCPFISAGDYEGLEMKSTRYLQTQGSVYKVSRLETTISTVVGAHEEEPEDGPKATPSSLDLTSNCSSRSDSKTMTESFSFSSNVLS
SMILES,Ki [1] [nM],inhibition in vivo at 1 mg/kg [2] [%],inhibition in vivo at 1 mg/kg [3] [%],inhibition in vivo at 1 mg/kg [4] [%],Ki [5] [nM],inhibition [6] [%],inhibition [7] [%]
C[C@@H](OC[C@@]1(c2ccccc2)C[C@H](N2CCCC2)C(=O)N1)c1cc(C(F)(F)F)cc(C(F)(F)F)c1,0.4,45,60,78,,,
CC(=O)N[C@@H]1C[C@@](CO[C@H](C)c2cc(C(F)(F)F)cc(C(F)(F)F)c2)(c2ccccc2)NC1=O,0.9,71,97,80,,,
C[C@@H](OC[C@@]1(c2ccccc2)C[C@H](N2CCCC2=O)C(=O)N1)c1cc(C(F)(F)F)cc(C(F)(F)F)c1,0.2,98,100,100,1250,28,
C[C@@H](OC[C@@]1(c2ccccc2)C[C@@H](N2CCCC2=O)C(=O)N1)c1cc(C(F)(F)F)cc(C(F)(F)F)c1,0.5,39,46,49,,,
C[C@@H]1C[C@@](CO[C@H](C)c2cc(C(F)(F)F)cc(C(F)(F)F)c2)(c2ccccc2)NC1=O,2,36,2,11,,,
C[C@@H](OC[C@@]1(c2ccccc2)C[C@H](NS(C)(=O)=O)C(=O)N1)c1cc(C(F)(F)F)cc(C(F)(F)F)c1,0.6,43,58,10,,,
C[C@@H](OC[C@@]1(c2ccccc2)C[C@@H](N2CCCCC2=O)C(=O)N1)c1cc(C(F)(F)F)cc(C(F)(F)F)c1,0.2,56,26,20,,,
C[C@@H](OC[C@@]1(c2ccccc2)C[C@H](N2CCCCC2=O)C(=O)N1)c1cc(C(F)(F)F)cc(C(F)(F)F)c1,0.2,63,37,74,,,
C[C@H]1C[C@@](CO[C@H](C)c2cc(C(F)(F)F)cc(C(F)(F)F)c2)(c2ccccc2)NC1=O,0.7,44,85,77,,,
C[C@@H](OC[C@@]1(c2ccccc2)CNC(=O)N1)c1cc(C(F)(F)F)cc(C(F)(F)F)c1,,48,57,35,,,
CCC(=O)N[C@H]1C[C@@](CO[C@H](C)c2cc(C(F)(F)F)cc(C(F)(F)F)c2)(c2ccccc2)NC1=O,0.3,90,97,84,,,
C[C@@H](OC[C@@]1(c2ccccc2)C[C@@H](NS(C)(=O)=O)C(=O)N1)c1cc(C(F)(F)F)cc(C(F)(F)F)c1,2.6,0,15,0,,,
CC(=O)N[C@H]1C[C@@](CO[C@H](C)c2cc(C(F)(F)F)cc(C(F)(F)F)c2)(c2ccccc2)NC1=O,0.3,91,94,94,,1.4,43
C[C@@H](OC[C@@]1(c2ccccc2)CCC(=O)N1)c1cc(C(F)(F)F)cc(C(F)(F)F)c1,0.6,47,78,92,3810,0.1,
C[C@@H](OC[C@@]1(c2ccccc2)CC(O)C(=O)N1)c1cc(C(F)(F)F)cc(C(F)(F)F)c1 (stereo partly drawn),0.5,1,35,27,,,
C[C@@H](OC[C@@]1(c2ccccc2)CC(N)C(=O)N1)c1cc(C(F)(F)F)cc(C(F)(F)F)c1 (stereo partly drawn),0.4,11,13,5,,,
CCC(=O)N[C@@H]1C[C@@](CO[C@H](C)c2cc(C(F)(F)F)cc(C(F)(F)F)c2)(c2ccccc2)NC1=O,0.3,19,16,83,,,
